Measured values: paper PMC3156899 (Clinical cancer research : an official journal of the …, 2011)

System: pp65#23-specific CD4+ T cells
Experiment: Cytokine ELISPOT / ELISA of pp65#23-specific CD4+ T cells
Assay type: cell-based, human

221DQYVKVYLESFCEDVPSGKL240 [pp65#23]
IL-10 and IL-17 secretion (IL-10 ELISPOT, IL-17 ELISA (limit of detection 15.0 pg/ml)): no IL-10 or IL-17 was detected | IFN-γ and IL-4 secretion (ELISPOT) (antigen-specific, T2/DP4 pulsed with peptide, Figure 3B): predominantly secreted IFN-γ and much less IL-4 | IL-2 production (ELISPOT) (upon stimulation, Figure 3B): produced IL-2
